Results: patent US11584714B2 (priority 2018, dated 2023)
Counter-ions that a name gives are not always drawn. Like-named read-outs stand apart in the source and are kept apart here.

What was measured:
Format in all cases: biochemical
Lectin Pathway = test: Lectin pathway activation assay in human serum (mannan-coated ELISA, C3c detection); conditions: 1% human serum
mMASP-2 = mMASP-2 (Mus musculus (Mouse), UniProt Q91WP0); test: Enzymatic inhibition of mMASP-2
human α-thrombin = human α-thrombin (Homo sapiens (Human), UniProt P00734); test: Enzymatic assay for thrombin (Boc-VPR-AMC substrate)
MASP-2 (CCP1-CCP2-SP) = MASP-2 (CCP1-CCP2-SP) (Homo sapiens (Human), UniProt O00187); test: biochemical
[1] = selectivity for MASP-2 inhibition versus thrombin
[2] = MASP-2 inhibition versus thrombin

Chain of mMASP-2 (Q91WP0 20-685): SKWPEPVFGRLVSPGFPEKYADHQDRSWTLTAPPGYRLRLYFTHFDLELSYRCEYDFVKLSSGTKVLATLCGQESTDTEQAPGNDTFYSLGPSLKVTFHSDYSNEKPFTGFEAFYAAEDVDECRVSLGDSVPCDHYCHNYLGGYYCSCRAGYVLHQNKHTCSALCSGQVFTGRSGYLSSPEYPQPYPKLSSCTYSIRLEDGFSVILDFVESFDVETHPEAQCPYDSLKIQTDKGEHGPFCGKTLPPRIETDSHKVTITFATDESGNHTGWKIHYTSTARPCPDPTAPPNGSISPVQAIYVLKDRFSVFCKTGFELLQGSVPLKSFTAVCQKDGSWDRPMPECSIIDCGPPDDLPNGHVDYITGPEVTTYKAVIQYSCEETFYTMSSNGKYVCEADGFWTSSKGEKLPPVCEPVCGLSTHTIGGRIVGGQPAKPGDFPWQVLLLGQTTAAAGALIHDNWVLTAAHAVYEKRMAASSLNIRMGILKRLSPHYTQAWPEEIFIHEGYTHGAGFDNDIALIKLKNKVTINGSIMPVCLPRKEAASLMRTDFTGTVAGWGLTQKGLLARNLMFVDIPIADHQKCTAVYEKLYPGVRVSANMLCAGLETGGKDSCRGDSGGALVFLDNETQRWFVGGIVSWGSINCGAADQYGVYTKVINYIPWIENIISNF
Chain of MASP-2 (CCP1-CCP2-SP) (O00187 445-686): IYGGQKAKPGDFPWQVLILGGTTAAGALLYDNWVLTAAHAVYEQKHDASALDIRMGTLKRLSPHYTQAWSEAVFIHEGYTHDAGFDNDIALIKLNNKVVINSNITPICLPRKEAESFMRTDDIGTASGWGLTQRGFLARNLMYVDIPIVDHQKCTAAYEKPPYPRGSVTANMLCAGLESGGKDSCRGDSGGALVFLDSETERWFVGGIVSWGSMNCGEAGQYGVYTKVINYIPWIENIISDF

Compound	IC50 (Lectin Pathway)	Ki (mMASP-2; read-out: mMASP-2 Ki)	Ki (human α-thrombin; read-out: Thrombin Ki)	Ki (MASP-2 (CCP1-CCP2-SP); read-out: MASP-2 Ki)	MASP-2 vs. thrombin selectivity (MASP-2 (CCP1-CCP2-SP); [1])	Ki (MASP-2 (CCP1-CCP2-SP))	Ki (human α-thrombin; Thrombin Ki (μM))	Ki (mMASP-2)	MASP-2 vs. thrombin selectivity (MASP-2 (CCP1-CCP2-SP); [2])
Cc1nc(N)ccc1CNC(=O)[C@H](C)NC(=O)[C@H]1C[C@@H](c2ccccc2)CCN1C [compound 1441, (2R,4S)—N—((S)-1-(((6-Amino-2-methylpyridin-3-yl)methyl)amino)-1-oxopropan-2-yl)-1-methyl-4-phenylpiperidine-2-carboxamide]	50 to 500 nM	< 500 nM	> 25 µM	< 500 nM					
Cc1cc(C)cc(C[C@@H]2CN[C@@H](C(=O)N[C@@H](C)C(=O)NCc3cc(Cl)ccc3-n3cnnn3)C2)c1 [compound 1416, (2R,4S)—N—((S)-1-((5-Chloro-2-(1H-tetrazol-1-yl)benzyl)amino)-1-oxopropan-2-yl)-4-(3,5-dimethylbenzyl)pyrrolidine-2-carboxamide Hydrochloride]	50 to 500 nM	< 500 nM	< 0.5 µM	< 500 nM	** (≥5.0 to <25-fold)				
Cc1cnc(NCCc2ccccc2)c(=O)n1CC(=O)NCc1ccc2c(N)nccc2c1 [compound 1491, N-((1-Aminoisoquinolin-6-yl)methyl)-2-(6-methyl-2-oxo-3-(phenethylamino)pyrazin-1(2H)-yl)acetamide Trifluoroacetamide salt]	5000 to 50000 nM	< 500 nM	< 0.5 µM		−− (<1.0-fold)	500 to 2500 nM			
Cc1nc(N)ccc1CNC(=O)[C@H](C)NC(=O)[C@H]1C[C@H](Cc2ccc(-c3nccs3)cc2)CN1 [compound 1361, (2R,4S)—N—((S)-1-(((6-Amino-2-methylpyridin-3-yl)methyl)amino)-1-oxopropan-2-yl)-4-(4-(thiazol-2-yl)benzyl)pyrrolidine-2-carboxamide Di-trifluoroacetate salt]	< 50 nM	< 500 nM	> 25 µM	< 500 nM	**** (≥100-fold)				
COc1ccc2cc(C[C@@H]3CN[C@@H](C(=O)N[C@@H](C)C(=O)NCc4ccc(N)nc4C)C3)ccc2c1 [compound 1453, (2R,4S)—N—((S)-1-(((6-Amino-2-methylpyridin-3-yl)methyl)amino)-1-oxopropan-2-yl)-4-((6-methoxynaphthalen-2-yl)methyl)pyrrolidine-2-carboxamide Dihydrochloride]	< 50 nM	< 500 nM		< 500 nM	**** (≥100-fold)		10 to 25 µM		
Cc1nc(N)ccc1CNC(=O)[C@H](C)NC(=O)[C@H]1Cc2c([nH]c3ccccc23)CN1 [compound 1389, (R)—N—((S)-1-(((6-Amino-2-methylpyridin-3-yl)methyl)amino)-1-oxopropan-2-yl)-2,3,4,9-tetrahydro-1H-pyrido[3,4-b]indole-3-carboxamide Hydrochloride]	500 to 5000 nM	2500 to 10000 nM	> 25 µM	< 500 nM	**** (≥100-fold)				
Cc1nc(N)ccc1CNC(=O)[C@H](C)NC(=O)[C@H]1C[C@H](Cc2ccc(C(C)(C)C)cc2)CN1 [compound 1380, (2R,4S)—N—((S)-1-(((6-Amino-2-methylpyridin-3-yl)methyl)amino)-1-oxopropan-2-yl)-4-(4-(tert-butyl)benzyl)pyrrolidine-2-carboxamide Dihydrochloride]	> 50000 nM	< 500 nM	> 25 µM		*** (≥25 to <100-fold)	500 to 2500 nM			
Cc1ccccc1CN1CCN[C@@H](C(=O)N[C@@H](C)C(=O)NCc2ccc(N)nc2C)C1 [compound 1348, (R)—N—((S)-1-(((6-Amino-2-methylpyridin-3-yl)methyl)amino)-1-oxopropan-2-yl)-4-(2-methylbenzyl)piperazine-2-carboxamide Dihydrochloride]	< 50 nM	< 500 nM	< 0.5 µM	< 500 nM	*** (≥25 to <100-fold)				
Cc1cc(Cl)cc(CNC(=O)[C@H](C)NC(=O)[C@H]2C[C@H](Cc3ccc4ccccc4c3)CN2)c1O [compound 1370, (2R,4S)—N—((S)-1-((5-Chloro-2-hydroxy-3-methylbenzyl)amino)-1-oxopropan-2-yl)-4-(naphthalen-2-ylmethyl)pyrrolidine-2-carboxamide]	50 to 500 nM		> 25 µM	< 500 nM				500 to 2500 nM	
C[C@H](NC(=O)[C@H](N)CCc1ccccc1)C(=O)NCc1ccc2nc(N)[nH]c2c1 (single isomer, unassigned) [compound 1040, Di-trifluoroacetate salt]	500 to 5000 nM	< 500 nM	> 25 µM	< 500 nM					**** (>100-fold)
Cc1nc(N)ccc1CNC(=O)[C@H](C)NC(=O)[C@H]1C[C@H](Cc2ccc(Cl)c(Br)c2)CN1 [compound 1451, (2R,4S)—N—((S)-1-(((6-Amino-2-methylpyridin-3-yl)methyl)amino)-1-oxopropan-2-yl)-4-(3-bromo-4-chlorobenzyl)pyrrolidine-2-carboxamide Di-trifluoroacetate salt]	500 to 5000 nM	< 500 nM		< 500 nM	**** (≥100-fold)		10 to 25 µM		
Cc1nc(N)ccc1CNC(=O)[C@H](C)NC(=O)[C@H]1C[C@H](Cc2cc(Cl)ccc2Cl)CN1 [compound 1444, (2R,4S)—N—((S)-1-(((6-Amino-2-methylpyridin-3-yl)methyl)amino)-1-oxopropan-2-yl)-4-(2,5-dichlorobenzyl)pyrrolidine-2-carboxamide Dihydrochloride]	500 to 5000 nM	< 500 nM	< 0.5 µM	< 500 nM	** (≥5.0 to <25-fold)				
Cc1nc(N)ccc1CNC(=O)[C@H](C)NC(=O)[C@@H](CCc1ccccc1)NCc1ccc(Cl)cc1 [compound 1375, (R)—N—((S)-1-(((6-Amino-2-methylpyridin-3-yl)methyl)amino)-1-oxopropan-2-yl)-2-((4-chlorobenzyl)amino)-4-phenylbutanamide]	500 to 5000 nM	10000 to 25000 nM			** (≥5.0 to <25-fold)	500 to 2500 nM	10 to 25 µM		
Cc1c(Cl)cccc1CC[C@@H](N)C(=O)N[C@@H](C)C(=O)NCc1ccc(C(=N)N)cc1 [compound 1103]	50 to 500 nM	< 500 nM	< 0.5 µM	< 500 nM					** (5.0 to 25-fold)
CC(=O)Nc1ccc(CCN[C@H](CCc2ccccc2)C(=O)N[C@@H](C)C(=O)NCc2ccc(C(=N)N)cc2)cc1 [compound 1345, (R)-2-((4-acetamidophenethyl)amino)-N-((S)-1-((4-carbamimidoylbenzyl)amino)-1-oxopropan-2-yl)-4-phenylbutanamide dihydrochloride]	< 50 nM	< 500 nM	< 0.5 µM	< 500 nM	**** (≥100-fold)				
Cc1nc(N)ccc1CNC(=O)[C@H](C)NC(=O)[C@H]1C[C@H](Cc2cc(Cl)cc(Cl)c2)CN1 [compound 1435, (2R,4S)—N—((S)-1-(((6-Amino-2-methylpyridin-3-yl)methyl)amino)-1-oxopropan-2-yl)-4-(3,5-dichlorobenzyl)pyrrolidine-2-carboxamide Dihydrochloride]	500 to 5000 nM	< 500 nM		< 500 nM	**** (≥100-fold)		10 to 25 µM		
Cc1nc(N)ccc1CNC(=O)[C@H](C)NC(=O)[C@H]1C[C@H](Cc2ccc(Br)cc2)CN1 [compound 1350, (2R,4S)—N—((S)-1-(((6-Amino-2-methylpyridin-3-yl)methyl)amino)-1-oxopropan-2-yl)-4-(4-bromobenzyl)pyrrolidine-2-carboxamide Dihydrochloride]	500 to 5000 nM	< 500 nM		< 500 nM	**** (≥100-fold)		2.5 to 10 µM		
Cc1cc(C)cc(C[C@@H]2CN[C@@H](C(=O)N[C@@H](C)C(=O)NCc3ccc(N)nc3C)C2)c1 [compound 1331, (2R,4S)—N—((S)-1-(((6-amino-2-methylpyridin-3-yl)methyl)amino)-1-oxopropan-2-yl)-4-(3,5-dimethylbenzyl)pyrrolidine-2-carboxamide Dihydrochloride]	50 to 500 nM	< 500 nM	> 25 µM	< 500 nM	**** (≥100-fold)				
